According to patent publication US9107415B2, “2-(substituted-phenyl)-cyclopentane-1,3-dione compounds, and derivatives thereof” (Syngenta Limited, priority 2011, dated 2015):

Experiments:
[1] = system: Alopecurus myosuroides (ALOMY); assay: Biological Example 4B (not-previously-formulated compounds) post-emergence herbicidal activity on grassy weeds; assay type: in vivo; details: 14 DAA, technical compound in IF50 + Adigor, mean of two
Experimental: (§1) Seeds of a variety of test species are sown in standard soil in pots. After cultivation for 14 days under controlled conditions in a glasshouse (at 22/16°C., day/night; 16 hours light; 65% humidity), the plants are sprayed with an aqueous spray solution derived from the formulation of the technical active ingredient dissolved in acetone plus IF50 containing
(§2) 10.56 wt % Emulsogen™EL (castor oil ethoxylate, CAS Registry number 61791-12-6)
(§3) 42.22 wt % N-Methyl pyrrolidone
(§4) 42.22 wt % dipropylene glycol monoethyl ether
(§5) at a 1:20 ratio of (technical active ingredient:IF50). The adjuvant Adigor™(an adjuvant containing inter alia methylated rapeseed oil, e.g. available from Syngenta) is added to form a 0.5% v/v solution. The test plants are then grown on under controlled conditions in the glasshouse (at 22/16°C., day/night; 16 hours light; 65% humidity) and are watered twice daily. After 14 days the test is evaluated (100%=total damage to plant; 0%=no damage to plant).
(§6) […] Herbicidal activity (phytotoxicity) is evaluated visually, and an assessed percentage phytotoxicity score is given for each herbicidal application on each plant species (with 100%=total damage to plant; 0%=no damage to plant). Two repetitions are made for each experiment, and the mean herbicidal activity (phytotoxicity) data is reported.
(§7) Test plants: Avena fatua (AVEFA), Lolium multiflorum (LOLMU), Setaria viridis (SETVI), Poa annua (POAAN), Alopecurus myosuroides (ALOMY). All five of these are grassy monocotyledonous weeds.

Setaria viridis (SETVI) = assay: as above; assay type: in vivo; details: 14 DAA, technical compound in IF50 + Adigor, mean of two
Experimental: as §1, §2, §3, §4, §5, §6, §7

Poa annua (POAAN) = assay: as above; assay type: in vivo; details: 14 DAA, technical compound in IF50 + Adigor, mean of two
Experimental: as §1, §2, §3, §4, §5, §6, §7

[2] = system: Spring Barley “Harrington”; assay: Biological Example 4B post-emergence phytotoxicity on cereal crops; assay type: in vivo; details: 15 g/ha, cloquintocet-mexyl 50 g/ha, 14 DAA, technical compound in IF50 + Adigor, mean of two
[3] = Biological Example 5B “RASP” soil persistence method; details: 18 Acres soil
Experimental: Field soil (of the type “18 Acres”, as described in Biological Example 5A and Table 5.1 above) is sieved to 2 mm. The sieved soil is wetted up with distilled water, mixing thoroughly until it reaches “field capacity”. […] Usually, the moisture content of the soil used is about 25%.
For each compound tested, 6×50 mL polypropylene centrifuge tubes containing 10 g±0.5 g of soil at field capacity are used. Each tube lid has a 2 mm hole to allow for air circulation during the incubation period.
4×10 microliters of treatment solutions of the compounds to be tested are applied to the surface of the soil in groups of 6 tubes. 4×10 microliter drops are also dispensed into the treatment check vials and these are diluted to 1 mL with acetonitrile; at this point additional samples can be prepared for HPLC method development if required.
Two of the tubes containing the treated soil are capped and immediately frozen as T0 (day zero) samples. The remaining four samples are capped with lids containing a 2 mm hole drilled into the lid and incubated in controlled environment cabinets for the correct time interval at 20°C., 80% relative humidity.
After both one and four weeks incubation, two tubes from each treatment are removed from the cabinets, the lids are replaced for ones lacking ventilation holes and the tubes are frozen. When the samples are ready for analysis, a zero time, 1 week and 4 week sample for each compound is removed from the freezer and allowed to thaw. Immediately after thawing, 40 mL of extraction solution is added to the samples.
Samples are extracted using a mixture such as 80:20 (v/v) acetonitrile/1 M ammonium hydroxide solution. […]
All samples from the test are analysed by UPLC-MS. […]
For each compound, the molecular ion giving the best sensitivity is chosen and a single ion monitoring method is set up. The method development samples are re-analysed using the selected ion monitoring methods to check that suitable sensitivity is obtained.
Degradation kinetics, and an estimated half-life (T½) of the compound in the soil, can then be calculated using simple first order assumptions.

[4] = 30 g/ha, cloquintocet-mexyl 50 g/ha
[5] = 60 g/ha, cloquintocet-mexyl 0 g/ha
[6] = 60 g/ha, cloquintocet-mexyl 50 g/ha
[7] = 15 g/ha, cloquintocet-mexyl 50 g/ha

SMILES	ALOMY % phytotoxicity [1, 4] [%]	ALOMY % phytotoxicity [1, 5] [%]	ALOMY % phytotoxicity [1, 6] [%]	SETVI % phytotoxicity (Setaria viridis (SETVI); [4]) [%]	SETVI % phytotoxicity (Setaria viridis (SETVI); [5]) [%]	SETVI % phytotoxicity (Setaria viridis (SETVI); [6]) [%]	POAAN % phytotoxicity (Poa annua (POAAN); [4]) [%]	POAAN % phytotoxicity (Poa annua (POAAN); [5]) [%]	POAAN % phytotoxicity (Poa annua (POAAN); [6]) [%]	ALOMY % phytotoxicity [1, 7] [%]	SETVI % phytotoxicity (Setaria viridis (SETVI); [7]) [%]	POAAN % phytotoxicity (Poa annua (POAAN); [7]) [%]	Spring Barley “Harrington” phytotoxicity (%) [2] [%]	RASP Test: % of compound remaining at 0 weeks ([3]; 0 weeks) [%]	RASP Test: % of compound remaining at 1 week ([3]; 1 week incubation at 20°C) [%]	RASP Test: % of compound remaining at 4 weeks ([3]; 4 weeks incubation at 20°C) [%]
CC#Cc1cc(C)c(C2=C(O)CC(Cc3ccc(C)cn3)C2=O)c(C)c1 (stereo not shown) [Compound A-8]	63	94	94	55	75	75	65	80	75	–	–	–	–	–	–	–
CC#Cc1cc(C)c(C2=C(O)CC(Cc3ccc(F)cn3)C2=O)c(C)c1 (stereo not shown) [Compound A-11]	73	85	85	89	98	97	70	75	75	–	–	–	–	–	–	–
CC#Cc1cc(C)c(C2=C(O)CC(Cc3ccc(C#N)cn3)C2=O)c(C)c1 (stereo not shown) [Compound A-14]	78	97	97	99	100	100	83	85	85	–	–	–	–	–	–	–
CC#Cc1cc(C)c(C2C(=O)CC(Cc3ccn(C)n3)C2=O)c(C)c1 (stereo not shown) [Compound A-19]	100	100	100	100	100	100	80	92	92	99	99	75	3	80	79	80
